Results: patent US10246456B2, “IRAK4 inhibiting agents” (BIOGEN MA INC., priority 2014, dated 2019)

Tested on: IL-6 in A549 cells
Test: Cell-based IL-6 ELISA assay in IL-1beta stimulated A549 cells
Settings: 2 ng/ml human IL-1beta overnight
Experimental: The cell-based assays is based on IL-6 ELISA quantification. Briefly, A549 cells are cultured in DMEM with 10% FBS medium. When cells reach 80% confluence they are trypsin treated and seeded 180 ul/well in 96-well plate at 2.5×10^4 cells/well. Then, 20 ul of compound serial dilutions (starting at 10 uM, 10 points) are added to the cell plate; incubate for 30 min at 37 C and stimulated with 2 ng/ml human IL-1beta 37 C, 5% CO2 overnight. The next day 100 ul of cell supernatant per well are analyzed on a Human IL-6 Quantikine ELISA kit from R&D Systems.

Row | Compound | EC50 [nM]
1 | C[C@H](N)c1cccc(-c2cc(F)c3cnn(-c4cccc(CO)n4)c3c2)n1 [Example 475, (6-{6-[6-((S)-1-Amino-ethyl)-pyridin-2-yl]-4-fluoro-indazol-1-yl}-pyridin-2-yl)-methanol] | ≤ 1000
2 | CCc1cccc(-c2cc(-c3nnc(C)o3)c3cnn(-c4cccc(CO)n4)c3c2)n1 [Example 358, (6-(6-(6-ethylpyridin-2-yl)-4-(5-methyl-1,3,4-oxadiazol-2-yl)-1H-indazol-1-yl)pyridin-2-yl)methanol] | ≤ 1000
3 | CCC[C@H](N)c1cccc(-c2cc(N3CCOCC3)c3cnn(-c4cccc(CO)n4)c3c2)n1 [Example 339, (S)-(6-(6-(6-(1-aminobutyl)pyridin-2-yl)-4-morpholino-1H-indazol-1-yl)pyridin-2-yl)methanol] | ≤ 1000
4 | CCC(O)C(N)c1cccc(-c2ccc3cnn(-c4cccc(CO)n4)c3c2)n1 (stereo not shown) [Example 516, 1-amino-1-(6-(1-(6-(hydroxymethyl)pyridin-2-yl)-1H-indazol-6-yl)pyridin-2-yl)butan-2-ol] | ≤ 1000
5 | CCC[C@H](N)c1cccc(-c2cc(C3=CCN(C)CC3)c3cnn(-c4cccc(CO)n4)c3c2)n1 [Example 423, (S)-(6-(6-(6-(1-aminobutyl)pyridin-2-yl)-4-(1-methyl-1,2,3,6-tetrahydropyridin-4-yl)-1H-indazol-1-yl)pyridin-2-yl)methanol] | ≤ 1000
6 | CCC[C@H](N)c1cccc(-c2cc(N3CCCCC3)c3cnn(-c4cccc(CO)n4)c3c2)n1 [Example 324, (S)-(6-(6-(6-(1-aminobutyl)pyridin-2-yl)-4-(piperidin-1-yl)-1H-indazol-1-yl)pyridin-2-yl)methanol] | ≤ 1000
7 | CCC[C@H](N)c1cccc(-c2cc(N3CCC3)c3cnn(-c4cccc(CO)n4)c3c2)n1 [Example 345, (S)-(6-(6-(6-(1-aminobutyl)pyridin-2-yl)-4-(azetidin-1-yl)-1H-indazol-1-yl)pyridin-2-yl)methanol] | ≤ 1000
8 | CC(O)CC(N)c1cccc(-c2ccc3cnn(-c4cccc(CO)n4)c3c2)n1 (stereo not shown) [Example 525, 4-amino-4-(6-(1-(6-(hydroxymethyl)pyridin-2-yl)-1H-indazol-6-yl)pyridin-2-yl)butan-2-ol] | ≤ 1000

Molecular target: IRAK4 (Homo sapiens (Human), UniProt Q9NWZ3)
Sequence (Q9NWZ3 whole entry, species assumed): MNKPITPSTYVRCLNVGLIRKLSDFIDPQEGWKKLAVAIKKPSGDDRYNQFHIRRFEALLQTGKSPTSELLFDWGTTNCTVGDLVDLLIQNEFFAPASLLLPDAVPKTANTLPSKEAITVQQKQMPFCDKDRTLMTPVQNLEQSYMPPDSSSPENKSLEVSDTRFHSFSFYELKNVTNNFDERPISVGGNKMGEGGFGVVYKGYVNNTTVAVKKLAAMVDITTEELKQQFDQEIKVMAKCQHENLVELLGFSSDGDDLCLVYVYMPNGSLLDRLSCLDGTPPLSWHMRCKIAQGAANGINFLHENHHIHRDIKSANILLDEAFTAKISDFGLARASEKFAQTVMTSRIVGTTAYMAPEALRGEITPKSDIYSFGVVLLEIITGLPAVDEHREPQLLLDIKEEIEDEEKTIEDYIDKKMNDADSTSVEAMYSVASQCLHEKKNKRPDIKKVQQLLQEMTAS
Test: IRAK-4 AlphaScreen biochemical kinase assay
Settings: 1 nM IRAK4, 1 mM ATP, 3.5 h at RT
Summary of the method: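 AlphaScreen read-out: streptavidin beads bind the biotinylated peptide and protein A beads bind the anti-phosphothreonine antibody, so energy transfer reports phosphorylation of the peptide. The kinase is human IRAK-4.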

Row | Compound | IC50 [nM]
9 | Cc1cccc(-n2ncc3ccc(-c4cn(C)c(CO)n4)cc32)n1 [Example 257, (1-methyl-4-(1-(6-methylpyridin-2-yl)-1H-indazol-6-yl)-1H-imidazol-2-yl)methanol] | < 100
10 | CCc1cccc(-n2ncc3ccc(-c4cccc(/C(C)=N/O)n4)cc32)n1 [Example 235, (E)-1-(6-(1-(6-ethylpyridin-2-yl)-1H-indazol-6-yl)pyridin-2-yl)ethanone oxime] | 1000 to 10000
11 | Cc1cccc(-n2ncc3ccc(-c4cc(CN)ccn4)cc32)n1 [Example 5, (2-(1-(6-methylpyridin-2-yl)-1H-indazol-6-yl)pyridin-4-yl)methanamine] | 1000 to 10000
12 | CCC[C@H](N)c1ccnc(-c2ccc3cnn(-c4cccc(CO)n4)c3c2)c1 [Example 404, (S)-(6-(6-(4-(1-aminobutyl)pyridin-2-yl)-1H-indazol-1-yl)pyridin-2-yl)methanol] | 100 to 1000
13 | Cc1cccc(-n2ncc3ccc(-c4cccc(C(C)O)n4)cc32)n1 (stereo not shown) [Example 130, 1-(6-(1-(6-methylpyridin-2-yl)-1H-indazol-6-yl)pyridin-2-yl)ethanol] | 100 to 1000
14 | CCC(N)c1cccc(-c2ccc3cnn(-c4cccc(CO)n4)c3c2)n1 (stereo not shown) [Example 294, (6-(6-(6-(1-aminopropyl)pyridin-2-yl)-1H-indazol-1-yl)pyridin-2-yl)methanol] | < 100
15 | N#CC[C@@H](N)c1cccc(-c2ccc3cnn(-c4cccc(CO)n4)c3c2)n1 [Example 581, (R)-3-amino-3-(6-(1-(6-(hydroxymethyl)pyridin-2-yl)-1H-indazol-6-yl)pyridin-2-yl)propanenitrile] | 100 to 1000
16 | CN(C)C(=O)c1cc(-c2cncc(N)c2)cc2c1cnn2-c1cccc(C(F)(F)F)n1 [Example 60, 6-(5-aminopyridin-3-yl)-N,N-dimethyl-1-(6-(trifluoromethyl)pyridin-2-yl)-1H-indazole-4-carboxamide] | 1000 to 10000
17 | NCc1cc(-c2cncc(N)c2)cc2c1cnn2-c1cccc(C(F)(F)F)n1 [Example 53, 5-(4-(aminomethyl)-1-(6-(trifluoromethyl)pyridin-2-yl)-1H-indazol-6-yl)pyridin-3-amine] | 100 to 1000
18 | N[C@@H](CF)c1cccc(-c2ccc3cnn(-c4cccc(CO)n4)c3c2)n1 [Example 589, (R)-(6-(6-(6-(1-amino-2-fluoroethyl)pyridin-2-yl)-1H-indazol-1-yl)pyridin-2-yl)methanol] | < 100
19 | Cc1cccc(-n2ncc3ccc(-c4cccc(CC#N)n4)cc32)n1 [Example 249, 2-(6-(1-(6-methylpyridin-2-yl)-1H-indazol-6-yl)pyridin-2-yl)acetonitrile] | 100 to 1000
20 | Cc1cccc(-n2ncc3ccc(-c4coc(CN)n4)cc32)n1 [Example 285, (4-(1-(6-methylpyridin-2-yl)-1H-indazol-6-yl)oxazol-2-yl)methanamine] | 1000 to 10000
21 | Cc1cccc(-n2ncc3ccc(-c4cn(C)c(C(C)N)n4)cc32)n1 (stereo not shown) [Example 305, 1-(1-methyl-4-(1-(6-methylpyridin-2-yl)-1H-indazol-6-yl)-1H-imidazol-2-yl)ethanamine] | 100 to 1000
22 | NCc1cccc(-c2ccc3cnn(-c4cccc(C(N)=O)n4)c3c2)n1 [Example 47, 6-(6-(6-(aminomethyl)pyridin-2-yl)-1H-indazol-1-yl)picolinamide] | < 100
23 | CC[C@H](N)c1cccc(-c2ccc3cnn(-c4cccc(CO)n4)c3c2)n1 [Example 318, (S)-(6-(6-(6-(1-aminopropyl)pyridin-2-yl)-1H-indazol-1-yl)pyridin-2-yl)methanol] | < 100
24 | C[C@H](N)c1cccc(-c2cc(-c3csc(C(F)(F)F)n3)c3cnn(-c4cccc(CO)n4)c3c2)n1 [Example 382, (S)-(6-(6-(6-(1-aminoethyl)pyridin-2-yl)-4-(2-(trifluoromethyl)thiazol-4-yl)-1H-indazol-1-yl)pyridin-2-yl)methanol] | < 100
25 | CCC[C@H](N)c1cccc(-c2cc(COC(F)(F)F)c3cnn(-c4cccc(CO)n4)c3c2)n1 [Example 579, (S)-(6-(6-(6-(1-aminobutyl)pyridin-2-yl)-4-((trifluoromethoxy)methyl)-1H-indazol-1-yl)pyridin-2-yl)methanol] | < 100
26 | CC(C)c1cccc(-n2ncc3ccc(-c4cccc(C(C)N)n4)cc32)n1 (stereo not shown) [Example 121, 1-(6-(1-(6-isopropylpyridin-2-yl)-1H-indazol-6-yl)pyridin-2-yl)ethanamine] | < 100
27 | Cc1cccc(-n2ncc3c(-c4cc[nH]n4)cc(-c4cccc(C(C)N)n4)cc32)n1 (stereo not shown) [Example 319, 1-(6-(1-(6-methylpyridin-2-yl)-4-(1H-pyrazol-3-yl)-1H-indazol-6-yl)pyridin-2-yl)ethanamine] | < 100
28 | CC(=O)NCc1cc(-c2cccc(C(C)N)n2)cc2nn(-c3cccc(C)n3)cc12 (stereo not shown) [Example 217, N-((6-(6-(1-aminoethyl)pyridin-2-yl)-2-(6-methylpyridin-2-yl)-2H-indazol-4-yl)methyl)acetamide] | 1000 to 10000
29 | CCC[C@H](N)c1cccc(-c2cc(OCC3CC(F)(F)C3)c3cnn(-c4cccc(CO)n4)c3c2)n1 [Example 598, (S)-(6-(6-(6-(1-aminobutyl)pyridin-2-yl)-4-((3,3-difluorocyclobutyl)methoxy)-1H-indazol-1-yl)pyridin-2-yl)methanol] | < 100
30 | CC(N)c1cc(N)cc(-c2ccc3cnn(-c4cccc(C(F)(F)F)n4)c3c2)n1 (stereo not shown) [Example 270, 2-(1-aminoethyl)-6-(1-(6-(trifluoromethyl)pyridin-2-yl)-1H-indazol-6-yl)pyridin-4-amine] | < 100
31 | C[S+]([O-])CC(N)c1cccc(-c2ccc3cnn(-c4cccc(CO)n4)c3c2)n1 (stereo not shown) [Example 568, (6-(6-(6-(1-amino-2-(methylsulfinyl)ethyl)pyridin-2-yl)-1H-indazol-1-yl)pyridin-2-yl)methanol] | 1000 to 10000
32 | OCc1cccc(-n2ncc3ccc(-c4cccc(C5CCCN5)n4)cc32)n1 (stereo not shown) [Example 571, (6-(6-(6-(pyrrolidin-2-yl)pyridin-2-yl)-1H-indazol-1-yl)pyridin-2-yl)methanol] | 100 to 1000
33 | Cc1cccc(-n2ncc3ccc(-c4cccc(C(N)C#N)n4)cc32)n1 (stereo not shown) [Example 258, 2-amino-2-(6-(1-(6-methylpyridin-2-yl)-1H-indazol-6-yl)pyridin-2-yl)acetonitrile] | 100 to 1000
34 | CS(=O)(=O)CCNC(=O)c1cccc(-n2ncc3ccc(-c4cncc(N)c4)cc32)n1 [Example 74, 6-(6-(5-aminopyridin-3-yl)-1H-indazol-1-yl)-N-(2-(methylsulfonyl)ethyl)picolinamide] | 1000 to 10000
35 | CC(N)c1cccc(-c2ccc3cnn(-c4cccc(C5CC5)n4)c3c2)n1 (stereo not shown) [Example 119, 1-(6-(1-(6-cyclopropylpyridin-2-yl)-1H-indazol-6-yl)pyridin-2-yl)ethanamine] | < 100
36 | Cn1ccc(-c2cc(-c3cccc([C@@H](N)CCCO)n3)cc3c2cnn3-c2cccc(CO)n2)n1 [Example 395, (S)-4-amino-4-(6-(1-(6-(hydroxymethyl)pyridin-2-yl)-4-(1-methyl-1H-pyrazol-3-yl)-1H-indazol-6-yl)pyridin-2-yl)butan-1-ol] | < 100
37 | CC(C)(N)c1cccc(-c2ccc3cnn(-c4cccc(C(F)(F)F)n4)c3c2)n1 [Example 129, 2-(6-(1-(6-(trifluoromethyl)pyridin-2-yl)-1H-indazol-6-yl)pyridin-2-yl)propan-2-amine] | < 100
